Measured values: patent publication US12599672B2, “KRAS proteolysis targeting chimeras” (PAQ Therapeutics Inc., priority 2023, dated 2026)

What was measured:
KRAS G12V = biological target: T1, KRAS G12V (Homo sapiens, UniProt P01116, G12V); assay: KRAS G12V HiBit assay; format: cell-based; settings: SW620-KRAS (G12V)-HiBit-KI cells, compound treatment for 24 hours, class symbols
T1 construct: SW620-KRAS (G12V)-HiBit-KI cell (Pharmaron); host or cells: SW620-KRAS (G12V)-HiBit-KI cells (HiBiT knock-in at the endogenous KRAS locus)
T1 sequence (P01116 1-188 isoform P01116-2 G12V): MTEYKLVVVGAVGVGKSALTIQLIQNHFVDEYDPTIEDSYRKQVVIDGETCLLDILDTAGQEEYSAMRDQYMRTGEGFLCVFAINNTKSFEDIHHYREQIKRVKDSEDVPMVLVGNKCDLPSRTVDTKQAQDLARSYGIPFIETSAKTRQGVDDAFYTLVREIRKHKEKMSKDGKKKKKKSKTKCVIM
In short: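 Luminescence from lytic Nano-Glo HiBiT detection with LgBiT read KRAS G12V levels after 24 h compound exposure. Dilutions were 10-point, 3-fold, from a 0.3 mM DMSO stock. Degradation activity was normalised to cells given 0.1% DMSO alone.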

KRAS G12D = biological target: T2, KRAS G12D (Homo sapiens, UniProt P01116, G12D); assay: KRAS G12D HiBit assay; format: cell-based; settings: AsPc-1-KRAS (G12D)-HiBit-KI cell, compound treatment for 24 hours; for DC50: absolute DC50
T2 construct: AsPc-1-KRAS (G12D)-HiBit-KI cell (Pharmaron); host or cells: AsPc-1-KRAS (G12D)-HiBit-KI cells (HiBiT knock-in at the endogenous KRAS locus)
T2 sequence (P01116 1-188 isoform P01116-2 G12D): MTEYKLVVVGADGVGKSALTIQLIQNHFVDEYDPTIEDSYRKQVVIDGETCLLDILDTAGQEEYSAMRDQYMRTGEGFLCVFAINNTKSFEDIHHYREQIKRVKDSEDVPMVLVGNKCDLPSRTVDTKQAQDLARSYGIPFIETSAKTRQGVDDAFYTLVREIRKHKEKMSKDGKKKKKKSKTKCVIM
In short: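 HiBiT luminescence, detected by adding lytic buffer, substrate and LgBiT protein, served as the KRAS G12D read-out. Compounds, serially diluted 3-fold over 10 points from 0.3 mM DMSO stock, were on cells for 24 h; percent inhibition normalized to cells given 0.1% DMSO only.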

[1] = numeric bounds given in place of class symbols

Row | Compound | DC50 (KRAS G12V) | DC50 (KRAS G12D; [1]) | DC50 (KRAS G12D; class symbols) | Dmax (KRAS G12D; class symbols)
1 | C#Cc1c(F)ccc2cc(O)cc(-c3ncc4c(N5CCOCC5)nc(OCC5(CN6CCN(CC7CCN(c8ccc9c(c8)n(C)c(=O)n9C8CCC(=O)NC8=O)CC7)CC6)CC5)nc4c3F)c12 (centres unmarked) [Compound 18, 3-[5-[4-[[4-[[1-[[7-(8-Ethynyl-7-fluoro-3-hydroxy-1-naphthyl)-8-fluoro-4-morpholino-pyrido[4,3-d]pyrimidin-2-yl]oxymethyl]cyclopropyl]methyl]piperazin-1-yl]methyl]-1-piperidyl]-3-methyl-2-oxo-benzimidazol-1-yl]piperidine-2,6-dione] | > 100 nM |  | > 300 nM | 15 to 50%
2 | C[C@H]1CN(CC(=O)N2CCC(CN3CCC(c4ccc5c(c4)n(C)c(=O)n5C4CCC(=O)NC4=O)CC3)CC2)CCCN1c1nccc(-c2noc([C@]3(C)CCCc4sc(N)c(C#N)c43)n2)n1 (stereo partly drawn) [Compound 211, (4R)-2-amino-4-(3-{2-[(2S)-4-{2-[4-({4-[1-(2,6-dioxopiperidin-3-yl)-3-methyl-2-oxo-1,3-benzodiazol-5-yl]piperidin-1-yl}methyl)piperidin-1-yl]-2-oxoethyl}-2-methyl-1,4-diazepan-1-yl]pyrimidin-4-yl}-1,2,4-oxadiazol-5-yl)-4-methyl-6,7-dihydro-5H-1-benzothiophene-3-carbonitrile] | > 100 nM |  | > 300 nM | < 15%
3 | CCc1c(F)ccc2cc(O)cc(-c3ccc4c(N5CCC[C@@](C)(O)C5)nc(OCC56CCCN5C(COC(=O)N5CCC(CN7CCC(c8ccc9c(c8)n(C)c(=O)n9C8CCC(=O)NC8=O)CC7)CC5)CC6)nc4c3F)c12 (stereo partly drawn) [Compound 304, (7a-(((7-(8-ethyl-7-fluoro-3-hydroxynaphthalen-1-yl)-8-fluoro-4-((R)-3-hydroxy-3-methylpiperidin-1-yl)quinazolin-2-yl)oxy)methyl)hexahydro-1H-pyrrolizin-3-yl)methyl 4-((4-(1-(2,6-dioxopiperidin-3-yl)-3-methyl-2-oxo-2,3-dihydro-1H-benzo[d]imidazol-5-yl)piperidin-1-yl)methyl)piperidine-1-carboxylate] | > 100 nM | > 100 nM |  | 
4 | Cn1c(=O)n(C2CCC(=O)NC2=O)c2ccc(C3CCN(CC4CCN(C(=O)CN5CCN(c6nccc(-c7noc([C@@]8(C)CCCc9sc(N)c(C#N)c98)n7)n6)CC5)CC4)CC3)cc21 (some centres unmarked) [Compound 224] | > 100 nM |  | > 300 nM | 
5 | C#Cc1c(F)ccc2cccc(-c3ncc4c(N5CCC[C@@](C)(O)C5)nc(OCC5(CN6CCC(N7CCC(c8ccc9c(C%10CCC(=O)NC%10=O)nn(C)c9c8)CC7)CC6)CC5)nc4c3F)c12 (some centres unmarked) [Compound 57] | > 100 nM |  | < 100 nM | 
6 | C#Cc1c(F)ccc2cc(O)cc(-c3ncc4c(N5CCCCCC5)nc(OCC5(CN6CCN(CC7CCN(c8ccc9c(c8)n(C)c(=O)n9C8CCC(=O)NC8=O)CC7)CC6)CC5)nc4c3F)c12 (centres unmarked) [Compound 16] | > 100 nM |  | < 100 nM | > 50%
7 | C#Cc1c(F)ccc2cccc(-c3ncc4c(N5CCC[C@@](C)(O)C5)nc(OCC5(CN6CCC(CN7CCN(c8cccc9c8n(C)c(=O)n9C8CCC(=O)NC8=O)CC7)CC6)CC5)nc4c3F)c12 (some centres unmarked) [Compound 73] | > 100 nM |  | > 300 nM | 
8 | C#Cc1c(F)ccc2cccc(-c3ncc4c(N5CCC[C@@](C)(O)C5)nc(OC[C@@]56CCCN5[C@H](COC(=O)N5CCC(N7CCC(c8cccc9c8n(C)c(=O)n9C8CCC(=O)NC8=O)CC7)CC5)CC6)nc4c3F)c12 (some centres unmarked) [Compound 147] | > 100 nM | > 100 nM |  | 
9 | C#Cc1c(F)ccc2cc(O)cc(-c3ncc4c(N5CCC[C@@](C)(O)C5)nc(OCC5(CN6CCC(CN7CCC(c8cccc9c8n(C)c(=O)n9C8CCC(=O)NC8=O)CC7)CC6)CC5)nc4c3F)c12 (some centres unmarked) [Compound 65] | > 100 nM |  | < 100 nM | 
10 | C#Cc1c(F)ccc2cccc(-c3ncc4c(N5CCC[C@@](C)(O)C5)nc(OC[C@]56CCCN5[C@@H](COC(=O)N5CCC(CN7CCC(c8ccc9c(c8)n(C)c(=O)n9C8CCC(=O)NC8=O)CC7)CC5)CC6)nc4c3F)c12 (some centres unmarked) [Compound 131] | > 100 nM |  | > 300 nM | 
11 | C#Cc1c(F)ccc2cc(O)cc(-c3ncc4c(N5CCC[C@@](C)(O)C5)nc(OCC5(CN6CCN(Cc7cccc8c7n(C)c(=O)n8C7CCC(=O)NC7=O)CC6)CC5)nc4c3F)c12 (some centres unmarked) [Compound 63] | > 100 nM |  | > 300 nM | 
12 | CCc1c(F)ccc2cc(O)cc(-c3ncc4c(N5CCC[C@@](C)(O)C5)cc(OC[C@@]56CCCN5[C@H](COC(=O)N5CCC(CN7CCC(c8ccc9c(c8)n(C)c(=O)n9C8CCC(=O)NC8=O)CC7)CC5)CC6)nc4c3F)c12 (stereo partly drawn) [Compound 492, ((3S,7aS)-7a-(((7-(8-ethyl-7-fluoro-3-hydroxynaphthalen-1-yl)-8-fluoro-4-((R)-3-hydroxy-3-methylpiperidin-1-yl)-1,6-naphthyridin-2-yl)oxy)methyl)hexahydro-1H-pyrrolizin-3-yl)methyl 4-((4-(1-(2,6-dioxopiperidin-3-yl)-3-methyl-2-oxo-2,3-dihydro-1H-benzo[d]imidazol-5-yl)piperidin-1-yl)methyl)piperidine-1-carboxylate] | > 100 nM |  | < 100 nM | 
13 | CCc1c(F)ccc2cc(O)cc(-c3ncc4c(N5CCC[C@@](C)(O)C5)nc(OC[C@@]56CCCN5[C@@H](COC(=O)N5CCC(Oc7cccc8c7n(C)c(=O)n8C7CCC(=O)NC7=O)CC5)CC6)nc4c3F)c12 (stereo partly drawn) [Compound 313, ((3R,7aS)-7a-(((7-(8-ethyl-7-fluoro-3-hydroxynaphthalen-1-yl)-8-fluoro-4-((R)-3-hydroxy-3-methylpiperidin-1-yl)pyrido[4,3-d]pyrimidin-2-yl)oxy)methyl)hexahydro-1H-pyrrolizin-3-yl)methyl 4-((1-(2,6-dioxopiperidin-3-yl)-3-methyl-2-oxo-2,3-dihydro-1H-benzo[d]imidazol-4-yl)oxy)piperidine-1-carboxylate] | > 100 nM | > 100 nM |  | 

Other lines, results leading:

Row | DC50 (KRAS G12V) | DC50 (KRAS G12D; [1]) | DC50 (KRAS G12D; class symbols) | Dmax (KRAS G12D; class symbols) | Compound
14 | > 100 nM | > 100 nM |  |  | C#Cc1c(F)ccc2cc(O)cc(-c3ncc4c(N5CCC[C@@](C)(O)C5)nc(OC[C@@]56CCCN5[C@H](COC(=O)N5CCN(CC#CCOc7cccc8c7n(C)c(=O)n8C7CCC(=O)NC7=O)CC5)CC6)nc4c3F)c12 (stereo partly drawn) [Compound 376, ((3S,7aS)-7a-(((7-(8-ethynyl-7-fluoro-3-hydroxynaphthalen-1-yl)-8-fluoro-4-((R)-3-hydroxy-3-methylpiperidin-1-yl)pyrido[4,3-d]pyrimidin-2-yl)oxy)methyl)hexahydro-1H-pyrrolizin-3-yl)methyl 4-(4-((1-(2,6-dioxopiperidin-3-yl)-3-methyl-2-oxo-2,3-dihydro-1H-benzo[d]imidazol-4-yl)oxy)but-2-yn-1-yl)piperazine-1-carboxylate]
15 | 10 to 100 nM |  | < 100 nM |  | CCc1c(F)ccc2cc(O)cc(-c3ncc4c(N5CCC[C@@](C)(O)C5)nc(OC[C@@]56CCCN5[C@H](COC(=O)N5CC7C(CN8CCC(c9ccc%10c(c9)n(C)c(=O)n%10C9CCC(=O)NC9=O)CC8)C7C5)CC6)nc4c3F)c12 (stereo partly drawn) [Compound 401, ((3S,7aS)-7a-(((7-(8-ethyl-7-fluoro-3-hydroxynaphthalen-1-yl)-8-fluoro-4-((R)-3-hydroxy-3-methylpiperidin-1-yl)pyrido[4,3-d]pyrimidin-2-yl)oxy)methyl)hexahydro-1H-pyrrolizin-3-yl)methyl 6-((4-(1-(2,6-dioxopiperidin-3-yl)-3-methyl-2-oxo-2,3-dihydro-1H-benzo[d]imidazol-5-yl)piperidin-1-yl)methyl)-3-azabicyclo[3.1.0]hexane-3-carboxylate]
16 | < 10 nM |  | < 100 nM |  | C#Cc1c(F)ccc2cc(O)cc(-c3ncc4c(N5CCC[C@@](C)(O)C5)nc(OCC5(CN6CCC(CN7CCN(c8ccc9c(c8)n(C)c(=O)n9C8CCC(=O)NC8=O)CC7)CC6)CC5)nc4c3F)c12 (some centres unmarked) [Compound 25]
17 | 10 to 100 nM |  | < 100 nM |  | CCc1c(F)ccc2cc(O)cc(-c3ncc4c(N5CCC[C@@](C)(O)C5)nc(OC[C@@]56CCCN5[C@H](COC(=O)N5CCC(CN7CC8(CC(c9ccc%10c(c9)n(C)c(=O)n%10C9CCC(=O)NC9=O)C8)C7)CC5)CC6)nc4c3F)c12 (stereo partly drawn) [Compound 366, ((3S,7aS)-7a-(((7-(8-ethyl-7-fluoro-3-hydroxynaphthalen-1-yl)-8-fluoro-4-((R)-3-hydroxy-3-methylpiperidin-1-yl)pyrido[4,3-d]pyrimidin-2-yl)oxy)methyl)hexahydro-1H-pyrrolizin-3-yl)methyl 4-((6-(1-(2,6-dioxopiperidin-3-yl)-3-methyl-2-oxo-2,3-dihydro-1H-benzo[d]imidazol-5-yl)-2-azaspiro[3.3]heptan-2-yl)methyl)piperidine-1-carboxylate]
18 | < 10 nM |  | < 100 nM |  | C#Cc1cccc2cc(O)cc(-c3ncc4c(N5CCC[C@@](C)(O)C5)nc(OC[C@@]56CCCN5[C@H](COC(=O)N5CCC(CN7CCC(c8ccc9c(c8)n(C)c(=O)n9C8CCC(=O)NC8=O)CC7)CC5)CC6)nc4c3F)c12 (some centres unmarked) [Compound 144]
19 | < 10 nM |  | < 100 nM |  | CCc1c(F)ccc2cc(O)cc(-c3ccc4c(N5CCC[C@@](C)(O)C5)nc(OC[C@@]56CCCN5[C@H](COC(=O)N5CCC(CN7CCC(c8ccc9c(c8)n(C)c(=O)n9C8CCC(=O)NC8=O)CC7)CC5)CC6)nc4c3F)c12 (some centres unmarked) [Compound 146]
